Source: article PMC12467512, “Pharmacological Characterization of the Novel CRF1 Receptor Antagonist, Thiazolo[4,5-d] Pyrimidine Analog, M43” (Biomolecules, 2025)

Target: T1, CRF1R (type 1 receptor for the corticotropin-releasing factor) (Homo sapiens, UniProt P34998)
T1 construct: gene CRHR1
T1 sequence (P34998 24-415): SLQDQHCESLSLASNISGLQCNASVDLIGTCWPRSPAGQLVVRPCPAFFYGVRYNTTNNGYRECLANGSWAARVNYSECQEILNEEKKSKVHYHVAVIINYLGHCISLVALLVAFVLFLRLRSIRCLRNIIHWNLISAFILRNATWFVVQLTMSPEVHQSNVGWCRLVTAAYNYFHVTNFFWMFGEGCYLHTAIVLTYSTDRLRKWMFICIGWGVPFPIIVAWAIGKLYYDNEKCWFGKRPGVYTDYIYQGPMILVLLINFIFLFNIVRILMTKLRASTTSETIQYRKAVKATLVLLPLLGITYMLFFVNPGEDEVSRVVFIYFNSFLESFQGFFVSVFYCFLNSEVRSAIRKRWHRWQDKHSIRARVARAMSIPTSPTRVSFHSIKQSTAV
Assay: inhibition of cAMP accumulation stimulated by […] Tyr0-sauvagine in HEK […] cells stably expressing human CRF1R; also […] shift of agonist potency at […] M43
Type: cell-based

In the case of `CCCCN(CC)c1nc(C)nc2c1s/c(=N\O)n2-c1c(Cl)cc(Cl)cc1Cl` [M43], the IC50 is reported as 43.5 nM.
